Key:
[1] = Tablet pressing followed by PXRD analysis of the solid form; type: physicochemical; conditions: 200 mg tablet with 86 mg imatinib mesylate substance and excipients
Method: XRD diffraction was performed on X-Ray powder diffractometer: Philips X'pert Pro powder diffractometer, Cu-tube, scanning parameters: CuKα radiation, λ=1.5418 Å. Continuous scan at a rate of: 0.02° 2theta/0.3 sec.
Form V, having the main PXRD peaks at 9.9, 11.7, 13.3, 16.6, and 22.1±0.2 degrees two-theta, and all the components presented in the below table were weighed together and mixed to obtain a tablet.
Form X, having the main PXRD peaks at 6.0, 8.6, 11.4, 14.2, and 18.3±0.2 degrees two-theta, and all the components presented in the below table were weighed together and mixed to obtain a tablet.
Amorphous Imatinib mesylate and all the components presented in the below table were weighed together and mixed to obtain a tablet.

[2] = Moisture sensitivity / hygroscopicity of the solid phase noted during drying; type: physicochemical; conditions: filter cake dried under nitrogen stream
Method: Imatinib base (3 g, 0.0061 mole) was suspended in dry ethanol (60 ml). The suspension was cooled to −40° C. and then an ethanol-solution of methanesulfonic acid (0.591 g in 3.59 ml; 0.0061 mole) was added at once. Exactly after 5 min of stirring at −40° C. the seeding crystal (Form IV, 0.1 g) was put into the suspension. The stirring was maintained for additional 25 minutes in the temperature range from −40° C. to −35° C. Then the suspension was let to stay in freezer at −28° C. for 14 hours. In the course of standing, the major part of crystalline phase was created—important requirement is absence of motion. After standing the suspension was diluted with MTBE (50 ml) and crystalline product was filtered. […] Imatinib mesylate (Form IV) was obtained (3.61 g; yield: 90.1%).
Imatinib base (75 g, 0.152 mole) was placed into double-jacketed glass-reactor and suspended with water-1,3-dioxolane mixture (37.5 ml: 712.5 ml). The content of the reactor was kept (for all the time) under gentle nitrogen stream. The temperature was adjusted at 20° C., undiluted methanesulphonic acid (14.21 g, 0.148 mole) was added (at once or dropwise during a few minutes). The two-phase liquid was stirred cca 50 min at 20° C. […] The drying process was monitored by measuring LOD (loss on drying)—it was finished when LOD reached 11-12%. […]

[3] = Particle size of the crystalline form; type: physicochemical
[4] = Stability of the crystalline form under pressure and under heating; conditions: solid form

| SMILES | solid form found by PXRD after the tablet was pressed [1] | hygroscopicity / moisture sensitivity of solid phase [2] | particle size [3] | stability under pressure [4] | stable under heating up to a temperature of [4] |
| --- | --- | --- | --- | --- | --- |
| CS(=O)(=O)O.Cc1ccc(NC(=O)c2ccc(CN3CCN(C)CC3)cc2)cc1Nc1nccc(-c2cccnc2)n1 [Amorphous Imatinib mesylate, 4-(4-methylpiperazin-1-ylmethyl)-N-[4-methyl-3-[(4-pyrinin-3-yl)pyrimidin-2-yloamino]phenyl]benzamide mesylate, reference compound] | retaining the amorphous form | – | – | – | – |
| CS(=O)(=O)O.Cc1ccc(NC(=O)c2ccc(CN3CCN(C)CC3)cc2)cc1Nc1nccc(-c2cccnc2)n1 [Form IV, 4-(4-methylpiperazin-1-ylmethyl)-N-[4-methyl-3-[(4-pyrinin-3-yl)pyrimidin-2-yloamino]phenyl]benzamide mesylate] | – | moisture sensitive | less than 100 microns | – | – |
| CS(=O)(=O)O.Cc1ccc(NC(=O)c2ccc(CN3CCN(C)CC3)cc2)cc1Nc1nccc(-c2cccnc2)n1 [Form V, 4-(4-methylpiperazin-1-ylmethyl)-N-[4-methyl-3-[(4-pyrinin-3-yl)pyrimidin-2-yloamino]phenyl]benzamide mesylate] | belong to form V | – | – | stable under pressure | ≤ 80 °C |

The remaining lines, values ahead:

| solid form found by PXRD after the tablet was pressed [1] | hygroscopicity / moisture sensitivity of solid phase [2] | particle size [3] | stability under pressure [4] | stable under heating up to a temperature of [4] | SMILES |
| --- | --- | --- | --- | --- | --- |
| – | very hydroscopic | less than 100 microns | – | – | CS(=O)(=O)O.Cc1ccc(NC(=O)c2ccc(CN3CCN(C)CC3)cc2)cc1Nc1nccc(-c2cccnc2)n1 [Form VI, 4-(4-methylpiperazin-1-ylmethyl)-N-[4-methyl-3-[(4-pyrinin-3-yl)pyrimidin-2-yloamino]phenyl]benzamide mesylate] |
| – | – | less than 100 microns | – | – | CS(=O)(=O)O.Cc1ccc(NC(=O)c2ccc(CN3CCN(C)CC3)cc2)cc1Nc1nccc(-c2cccnc2)n1 [Form VII, 4-(4-methylpiperazin-1-ylmethyl)-N-[4-methyl-3-[(4-pyrinin-3-yl)pyrimidin-2-yloamino]phenyl]benzamide mesylate] |
| belong to form X | – | less than 100 microns | – | – | CS(=O)(=O)O.Cc1ccc(NC(=O)c2ccc(CN3CCN(C)CC3)cc2)cc1Nc1nccc(-c2cccnc2)n1 [Form X, 4-(4-methylpiperazin-1-ylmethyl)-N-[4-methyl-3-[(4-pyrinin-3-yl)pyrimidin-2-yloamino]phenyl]benzamide mesylate] |

— patent US7977348B2, “Polymorphic forms of imatinib mesylate and processes for preparation of novel crystalline forms as well as amorphous and form α” (Sicor Inc., priority 2006, dated 2011)
